From ChEMBL document CHEMBL1130390, “Design and synthesis of novel imidazole-substituted dipeptide amides as potent and selective inhibitors of Candida albicans myristoylCoA:protein N-myristoyltransferase and identification of related tripeptide inhibitors with mechanism-based antifungal activity” (J Med Chem, 1997)

Tested on: Cryptococcus neoformans
Test: Growth inhibitory activity against Cryptococcus neoformans.
Type: functional, organism-based

Question: With Cc1nccn1CCCCc1ccc(CC(=O)N[C@@H](CO)C(=O)N[C@@H](CCCCN)C(=O)N[C@@H](CC2CCCCC2)C(=O)O)cc1 as the molecule, how does the EC50 read?
Answer: > 100 µM

Question: Cc1nccn1CCCCc1ccc(CC(=O)N[C@H](CO)C(=O)N[C@H](CCCCN)C(=O)N[C@H](CC2CCCCC2)C(=O)O)cc1 was tested. Which EC50 did it give?
Answer: > 100 µM

Question: How did the EC50 turn out when Cc1nccn1CCCCc1ccc(C(C)C(=O)N[C@@H](CO)C(=O)N[C@@H](CCCCN)C(=O)N[C@@H](CC2CCCCC2)C(=O)O)cc1 (stereo not given in full) was run?
Answer: > 100 µM

Question: Which EC50 does the source give for COC(=O)[C@H](NC(=O)[C@H](CCCCN)NC(=O)[C@H](CO)NC(=O)Cc1ccc(CCCCn2ccnc2C)cc1)C(=O)O here?
Answer: > 100 µM

Target: T1, Peptide N-myristoyltransferase (Homo sapiens, UniProt P30419+O60551)
T1 sequence (P30419 whole entry): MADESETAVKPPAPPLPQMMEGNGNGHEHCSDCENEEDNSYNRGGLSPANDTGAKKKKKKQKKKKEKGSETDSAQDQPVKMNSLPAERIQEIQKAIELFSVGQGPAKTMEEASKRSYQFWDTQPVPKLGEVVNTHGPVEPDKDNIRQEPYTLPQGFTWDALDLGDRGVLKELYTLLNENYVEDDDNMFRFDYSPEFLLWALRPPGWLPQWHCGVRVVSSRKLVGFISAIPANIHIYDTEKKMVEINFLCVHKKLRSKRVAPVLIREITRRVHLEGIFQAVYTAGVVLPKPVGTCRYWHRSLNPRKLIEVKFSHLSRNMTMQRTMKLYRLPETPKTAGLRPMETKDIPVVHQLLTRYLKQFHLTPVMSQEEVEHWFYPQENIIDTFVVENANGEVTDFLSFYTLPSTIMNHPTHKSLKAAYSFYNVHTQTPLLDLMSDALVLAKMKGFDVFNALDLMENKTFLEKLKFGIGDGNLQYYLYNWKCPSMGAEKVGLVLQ
T1 sequence (O60551 whole entry): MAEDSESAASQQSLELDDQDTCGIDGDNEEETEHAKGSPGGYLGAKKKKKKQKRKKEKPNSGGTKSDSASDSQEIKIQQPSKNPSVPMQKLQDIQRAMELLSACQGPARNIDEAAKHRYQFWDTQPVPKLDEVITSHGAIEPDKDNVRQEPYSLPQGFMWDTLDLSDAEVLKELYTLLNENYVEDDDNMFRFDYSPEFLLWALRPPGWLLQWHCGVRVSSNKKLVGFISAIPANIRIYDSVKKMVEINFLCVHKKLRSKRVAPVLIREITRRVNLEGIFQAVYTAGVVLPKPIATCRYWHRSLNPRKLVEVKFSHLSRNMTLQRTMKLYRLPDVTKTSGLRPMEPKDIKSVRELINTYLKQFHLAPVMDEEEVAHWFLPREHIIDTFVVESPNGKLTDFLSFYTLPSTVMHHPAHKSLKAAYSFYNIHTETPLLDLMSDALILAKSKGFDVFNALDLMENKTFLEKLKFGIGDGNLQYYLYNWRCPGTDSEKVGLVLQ
Test: Inhibition activity against N-myristoyltransferase (NMT) of human.
Type: protein assay

Question: For Cc1nc2ccccc2n1CCCCc1ccc(C(C)C(=O)N[C@@H](CO)C(=O)N[C@@H](CCCCN)C(=O)NCCC2CCCCC2)cc1 (stereo not given in full), which IC50 is on record?
Answer: 119.5 µM

Question: Which IC50 does the source give for Cc1nccn1CCCCc1ccc(CC(=O)N[C@@H](CO)C(=O)N[C@@H](CCCCN)C(=O)N[C@@H](CC2CCCCC2)C(=O)O)cc1 here?
Answer: 809.5 µM

Question: How did the IC50 turn out when Cc1nccn1CCCCc1ccc(CC(=O)N[C@H](CO)C(=O)N[C@H](CCCCN)C(=O)N[C@H](CC2CCCCC2)C(=O)O)cc1 was run?
Answer: > 1000 µM

Question: Cc1nccn1CCCCc1ccc(C(C)C(=O)N[C@@H](CO)C(=O)N[C@@H](CCCCN)C(=O)N[C@@H](CC2CCCCC2)C(=O)O)cc1 (stereo not given in full) was tested. Which IC50 did it give?
Answer: 840 µM

Question: For CCc1nccn1CCCCc1ccc(CC(=O)N[C@@H](CO)C(=O)N[C@@H](CCCCN)C(=O)NCCC2CCCCC2)cc1, which IC50 is on record?
Answer: 28.2 µM

Question: For CC(C)c1nccn1CCCCc1ccc(CC(=O)N[C@@H](CO)C(=O)N[C@@H](CCCCN)C(=O)NCCC2CCCCC2)cc1, which IC50 is on record?
Answer: > 100 µM

Question: For COC(=O)[C@H](NC(=O)[C@H](CCCCN)NC(=O)[C@H](CO)NC(=O)Cc1ccc(CCCCn2ccnc2C)cc1)C(=O)O, which IC50 is on record?
Answer: 22.7 µM

Question: Which IC50 does the source give for CC(C(=O)N[C@@H](CO)C(=O)N[C@@H](CCCCN)C(=O)NCCC1CCCCC1)c1ccc(CCCCn2ccnc2Cl)cc1 (stereo not given in full) here?
Answer: 142 µM

Tested on: Candida albicans
Test: Growth inhibitory activity against candida albicans.
Type: functional, organism-based

Question: Cc1nccn1CCCCc1ccc(CC(=O)N[C@@H](CO)C(=O)N[C@@H](CCCCN)C(=O)N[C@@H](CC2CCCCC2)C(=O)O)cc1 was tested. Which EC50 did it give?
Answer: 51 µM

Tested on: Candida albicans
Test: tested to obtain the effective concentration to inhibit candida albicans.
Type: functional, organism-based

Question: How did the EC50 turn out when Cc1nccn1CCCCc1ccc(CC(=O)N[C@H](CO)C(=O)N[C@H](CCCCN)C(=O)N[C@H](CC2CCCCC2)C(=O)O)cc1 was run?
Answer: > 100 µM

Question: For Cc1nccn1CCCCc1ccc(C(C)C(=O)N[C@@H](CO)C(=O)N[C@@H](CCCCN)C(=O)N[C@@H](CC2CCCCC2)C(=O)O)cc1 (stereo not given in full), which EC50 is on record?
Answer: 33 µM

Question: How did the EC50 turn out when COC(=O)[C@H](NC(=O)[C@H](CCCCN)NC(=O)[C@H](CO)NC(=O)Cc1ccc(CCCCn2ccnc2C)cc1)C(=O)O was run?
Answer: > 100 µM

Target: Peptide N-myristoyltransferase (Candida albicans)

Question: For NCCCC[C@H](NC(=O)[C@H](CO)NC(=O)Cc1ccc(CCCCn2ccnc2)cc1)C(=O)NCCC1CCCCC1, which IC50 is on record?
Answer: 0.31 µM

Question: Cc1nc2ccccc2n1CCCCc1ccc(C(C)C(=O)N[C@@H](CO)C(=O)N[C@@H](CCCCN)C(=O)NCCC2CCCCC2)cc1 (stereo not given in full) was tested. Which IC50 did it give?
Answer: 0.86 µM

Question: For Cc1nccn1CCCCc1ccc(CC(=O)N[C@@H](CO)C(=O)N[C@@H](CCCCN)C(=O)N[C@@H](CC2CCCCC2)C(=O)O)cc1, which IC50 is on record?
Answer: 1.45 µM

Question: With NCCCC[C@H](NC(=O)[C@H](CO)NC(=O)Cc1ccc(CCCCn2ccnc2I)cc1)C(=O)NCCC1CCCCC1 as the molecule, how does the IC50 read?
Answer: 1.88 µM

Question: For Cc1nccn1CCCCc1ccc(CC(=O)N[C@H](CO)C(=O)N[C@H](CCCCN)C(=O)N[C@H](CC2CCCCC2)C(=O)O)cc1, which IC50 is on record?
Answer: > 1000 µM

Question: With Cc1nccn1CCCCc1ccc(C(C)C(=O)N[C@@H](CO)C(=O)N[C@@H](CCCCN)C(=O)N[C@@H](CC2CCCCC2)C(=O)O)cc1 (stereo not given in full) as the molecule, how does the IC50 read?
Answer: 0.38 µM

Question: For NCCCC[C@H](NC(=O)[C@H](CO)NC(=O)CCCCCCCCn1ccnc1)C(=O)NCCC1CCCCC1, which IC50 is on record?
Answer: 5.5 µM

Question: How did the IC50 turn out when CCc1nccn1CCCCc1ccc(CC(=O)N[C@@H](CO)C(=O)N[C@@H](CCCCN)C(=O)NCCC2CCCCC2)cc1 was run?
Answer: 0.147 µM

Question: How did the IC50 turn out when NCCCC[C@H](NC(=O)[C@H](CO)NC(=O)CCCCCCCCCCCn1ccnc1)C(=O)NCCC1CCCCC1 was run?
Answer: 3 µM

Question: Which IC50 does the source give for NCCCC[C@H](NC(=O)[C@H](CO)NC(=O)CCCCCCCCCn1ccnc1)C(=O)NCCC1CCCCC1 here?
Answer: 3 µM

Question: Which IC50 does the source give for CC(C)c1nccn1CCCCc1ccc(CC(=O)N[C@@H](CO)C(=O)N[C@@H](CCCCN)C(=O)NCCC2CCCCC2)cc1 here?
Answer: 0.2 µM

Question: For COC(=O)[C@H](NC(=O)[C@H](CCCCN)NC(=O)[C@H](CO)NC(=O)Cc1ccc(CCCCn2ccnc2C)cc1)C(=O)O, which IC50 is on record?
Answer: 0.081 µM

Question: Which IC50 does the source give for NCCCC[C@H](NC(=O)[C@H](CO)NC(=O)Cc1ccc(CCCCCn2ccnc2)cc1)C(=O)NCCC1CCCCC1 here?
Answer: 1.2 µM

Question: Which IC50 does the source give for CC(C(=O)N[C@@H](CO)C(=O)N[C@@H](CCCCN)C(=O)NCCC1CCCCC1)c1ccc(CCCCn2ccnc2Cl)cc1 (stereo not given in full) here?
Answer: 2.05 µM
